Earlier results as cited in patent US20260232577A1, “A MACROLIDE FOR USE IN A METHOD OF PREVENTING OR TREATING AN IMMUNOLOGICAL DISEASE OR DISORDER” (Nucleus Medical GmbH, priority 2023, published 2026).

bioavailability variability (after oral administration, international literature): 4-90% | blood level fluctuations, variation range (after oral application, internationally described): more than 80% | oral bioavailability on average (limited by presystemic metabolism in the GI tract): ~ 25%
Compound: C=CC[C@@H]1/C=C(\C)C[C@H](C)C[C@H](OC)[C@H]2O[C@@](O)(C(=O)C(=O)N3CCCC[C@H]3C(=O)O[C@H](/C(C)=C/[C@@H]3CC[C@@H](O)[C@H](OC)C3)[C@H](C)[C@@H](O)CC1=O)[C@H](C)C[C@@H]2OC [tacrolimus]
